Reference: patent US20170050957A1, “4-AMINO-6-(HETEROCYCLIC)PICOLINATES AND 6-AMINO-2-(HETEROCYCLIC)PYRIMIDINE-4-CARBOXYLATES AND THEIR USE AS HERBICIDES” (Dow AgroSciences LLC, priority 2013, published 2017)
Where two headings read alike, the source gives them in different places.

Assays:
[1] = tested on: Key Broadleaf Weed and Crop Species; test: Post-emergent Test II herbicidal activity (Table 15); type: in vivo; conditions: post-emergence, 336 h, 14 d; for pest or weed control at 35 g/ha: 35 g ai/ha; for pest or weed control at 70 g/ha: 70 g ai/ha; for pest or weed control at 140 g/ha: 140 g ai/ha
Outline: (§1)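 Visual injury rating (0 = none, 100% = complete kill) made 14 d after treatment, relative to untreated plants. Compounds in an acetone/DMSO/aqueous crop-oil/surfactant spray, at top rate and serial 1/2×-1/16× rates, were applied at 187 L/ha overhead to first-second true leaf plants raised 7-21 d in greenhouse.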

[2] = tested on: Key Grass and Sedge Weeds as well as Grass Crops; test: Post-emergent Test II herbicidal activity (Table 16); type: in vivo; conditions: post-emergence, 336 h, 14 d; for pest or weed control at 35 g/ha: 35 g ai/ha; for pest or weed control at 70 g/ha: 70 g ai/ha; for pest or weed control at 140 g/ha: 140 g ai/ha
Outline: as §1

[3] = Abutilon theophrasti, velvetleaf (Abutilon theophrasti), read-out: Visual Growth Reduction (%) 14 Days After Application, ABUTH
[4] = Amaranthus retroflexus, redroot pigweed (Amaranthus retroflexus), read-out: Visual Growth Reduction (%) 14 Days After Application, AMARE
[5] = Brassica napus, oilseed rape, canola (Brassica napus), read-out: Visual Growth Reduction (%) 14 Days After Application, BRSNN
[6] = Chenopodium album, lambsquarters (Chenopodium album), read-out: Visual Growth Reduction (%) 14 Days After Application, CHEAL
[7] = Euphorbia heterophylla, wild poinsettia (Euphorbia heterophylla), read-out: Visual Growth Reduction (%) 14 Days After Application, EPHHL
[8] = Helianthus annuus, sunflower (Helianthus annuus), read-out: Visual Growth Reduction (%) 14 Days After Application, HELAN
[9] = Cyperus esculentus, yellow nutsedge (Cyperus esculentus), read-out: Visual Growth Reduction (%) 14 Days After Application, CYPES
[10] = Echinochloa crus-galli, barnyardgrass (Echinochloa crus-galli), read-out: Visual Growth Reduction (%) 14 Days After Application, ECHCG
[11] = Oryza sativa, rice (Oryza sativa), read-out: Visual Growth Reduction (%) 14 Days After Application, ORYSA
[12] = Setaria faberi, giant foxtail (Setaria faberi), read-out: Visual Growth Reduction (%) 14 Days After Application, SETFA
[13] = Triticum aestivum, wheat, spring (Triticum aestivum), read-out: Visual Growth Reduction (%) 14 Days After Application, TRZAS
[14] = Zea mays, maize, corn (Zea mays), read-out: Visual Growth Reduction (%) 14 Days After Application, ZEAMX

C=Cc1c(C(=O)O)nc(-c2ccc3cc[nH]c3c2F)c(F)c1N [Compound 1.19]
pest or weed control at 35 g/ha [1, 3]: 95 to 100%
pest or weed control at 70 g/ha [1, 3]: 95 to 100%
pest or weed control at 140 g/ha [1, 3]: 95 to 100%
pest or weed control at 35 g/ha [1, 4]: 95 to 100%
pest or weed control at 70 g/ha [1, 4]: 95 to 100%
pest or weed control at 140 g/ha [1, 4]: 95 to 100%
pest or weed control at 35 g/ha [1, 5]: 95 to 100%
pest or weed control at 70 g/ha [1, 5]: 95 to 100%
pest or weed control at 140 g/ha [1, 5]: 95 to 100%
pest or weed control at 35 g/ha [1, 6]: 95 to 100%
pest or weed control at 70 g/ha [1, 6]: 95 to 100%
pest or weed control at 140 g/ha [1, 6]: 95 to 100%
pest or weed control at 35 g/ha [1, 7]: 95 to 100%
pest or weed control at 70 g/ha [1, 7]: 95 to 100%
pest or weed control at 140 g/ha [1, 7]: 95 to 100%
pest or weed control at 35 g/ha [1, 8]: 60 to 74%
pest or weed control at 70 g/ha [1, 8]: 75 to 84%
pest or weed control at 140 g/ha [1, 8]: 95 to 100%
pest or weed control at 35 g/ha [2, 9]: 85 to 94%
pest or weed control at 70 g/ha [2, 9]: 75 to 84%
pest or weed control at 140 g/ha [2, 9]: 95 to 100%
pest or weed control at 35 g/ha [2, 10]: 85 to 94%
pest or weed control at 70 g/ha [2, 10]: 85 to 94%
pest or weed control at 140 g/ha [2, 10]: 95 to 100%
pest or weed control at 35 g/ha [2, 11]: 30 to 44%
pest or weed control at 70 g/ha [2, 11]: 45 to 59%
pest or weed control at 140 g/ha [2, 11]: 60 to 74%
pest or weed control at 35 g/ha [2, 12]: 60 to 74%
pest or weed control at 70 g/ha [2, 12]: 75 to 84%
pest or weed control at 140 g/ha [2, 12]: 85 to 94%
pest or weed control at 35 g/ha [2, 13]: 60 to 74%
pest or weed control at 70 g/ha [2, 13]: 75 to 84%
pest or weed control at 140 g/ha [2, 13]: 75 to 84%
pest or weed control at 35 g/ha [2, 14]: 60 to 74%
pest or weed control at 70 g/ha [2, 14]: 60 to 74%
pest or weed control at 140 g/ha [2, 14]: 85 to 94%
